The test has as its target human wild type-CFTR (Homo sapiens, UniProt P13569). Description: Cell-based YFP assay. The arrangement: expressed in transfected cells; host or cells: CHO-K1 (Chinese hamster ovary). The note with it: CHO-K1 cells expressing human wild type-CFTR and YFP-H148Q/I152L; forskolin 20 μM = 100% activity; read-out: Cell-based YFP Assay (EC50) Concentration Range. How it is done: Forskolin (Tocris cat. #1099), Dimethyl sulfoxide (Sigma cat. #D4540), FLUO star Omega microplate reader (BMG Labtech, Ortenberg, Germany), MARS Data Analysis Software (BMG Labtech), GraphPad Prism 5 (GraphPad Software, Inc.) Chinese hamster ovary (CHO-K1) cells expressing human wild type-CFTR and halide sensor YFP-H148Q/I152L were constructed and grown in Dulbecco's modified Eagle's medium (DMEM) supplemented with 10% FBS, 2 mM glutamine, 100 units/ml penicillin and 100 μg/ml streptomycin. Chinese hamster ovary (CHO-K1) cells expressing human wild type-CFTR and halide sensor YFP-H148Q/I152L were seeded in 96-well microplate with 2×10^4 cells/well and incubated in 37° C., 48 hours. Then, each well was washed 3 times with PBS and 100 μL PBS was added in each well. […] YFP fluorescence signal affected by I^− ion influx through CFTR channel was measured in 37° C., FLUO star Omega microplate reader according to the following steps: • i) basal 2 seconds; • ii) 140 mM I^− solution 100 μL addition to each well; • iii) YFP fluorescence signal measurement start after 6 seconds; and • iv) following 14 seconds signal detection in every 0.4 seconds periods. […] Experiments were performed in triplicates and the data was averaged. EC50 values were calculated with MARS Data Analysis Software (BMG Labtech) and GraphPad Prism 5.

Each structure is given as a SMILES string.

human wild type-CFTR, sequence (P13569 whole entry): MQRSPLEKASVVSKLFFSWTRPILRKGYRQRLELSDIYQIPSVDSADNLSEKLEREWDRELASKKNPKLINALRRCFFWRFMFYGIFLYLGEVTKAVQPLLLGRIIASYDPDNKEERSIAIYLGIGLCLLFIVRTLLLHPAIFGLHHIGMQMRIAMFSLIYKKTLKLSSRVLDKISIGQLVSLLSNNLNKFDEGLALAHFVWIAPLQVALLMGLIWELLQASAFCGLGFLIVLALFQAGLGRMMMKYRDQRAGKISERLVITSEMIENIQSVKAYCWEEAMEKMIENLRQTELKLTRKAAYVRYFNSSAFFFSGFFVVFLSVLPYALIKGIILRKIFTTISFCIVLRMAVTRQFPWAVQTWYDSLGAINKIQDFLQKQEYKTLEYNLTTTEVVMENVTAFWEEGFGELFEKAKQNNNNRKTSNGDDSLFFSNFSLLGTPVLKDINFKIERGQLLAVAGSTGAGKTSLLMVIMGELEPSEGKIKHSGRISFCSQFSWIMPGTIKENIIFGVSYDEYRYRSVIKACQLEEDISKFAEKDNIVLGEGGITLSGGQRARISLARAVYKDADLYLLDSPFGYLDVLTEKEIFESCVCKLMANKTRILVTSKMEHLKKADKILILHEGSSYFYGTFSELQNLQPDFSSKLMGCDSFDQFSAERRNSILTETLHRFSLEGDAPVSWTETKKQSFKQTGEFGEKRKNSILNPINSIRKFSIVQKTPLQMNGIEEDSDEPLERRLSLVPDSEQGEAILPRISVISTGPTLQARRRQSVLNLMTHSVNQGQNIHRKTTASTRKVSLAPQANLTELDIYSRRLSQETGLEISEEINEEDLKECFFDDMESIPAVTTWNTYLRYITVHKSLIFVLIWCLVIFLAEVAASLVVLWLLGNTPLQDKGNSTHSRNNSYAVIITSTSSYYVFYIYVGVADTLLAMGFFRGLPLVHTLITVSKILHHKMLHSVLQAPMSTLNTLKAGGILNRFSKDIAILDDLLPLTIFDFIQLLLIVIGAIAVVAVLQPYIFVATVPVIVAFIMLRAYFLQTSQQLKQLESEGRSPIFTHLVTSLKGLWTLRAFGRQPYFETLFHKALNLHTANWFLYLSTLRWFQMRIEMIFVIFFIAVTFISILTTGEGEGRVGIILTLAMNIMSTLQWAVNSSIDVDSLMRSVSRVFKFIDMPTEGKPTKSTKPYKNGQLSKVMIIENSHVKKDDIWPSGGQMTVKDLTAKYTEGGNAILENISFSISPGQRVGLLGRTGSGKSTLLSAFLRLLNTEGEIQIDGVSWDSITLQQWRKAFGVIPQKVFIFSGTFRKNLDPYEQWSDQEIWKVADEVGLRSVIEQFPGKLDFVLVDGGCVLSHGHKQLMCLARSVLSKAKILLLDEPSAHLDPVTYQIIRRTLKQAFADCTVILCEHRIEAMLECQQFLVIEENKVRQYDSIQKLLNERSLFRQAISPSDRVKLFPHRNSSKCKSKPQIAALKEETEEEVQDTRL

As for `COc1ccc(-c2ccnc3cc(C(=O)N[C@H]4CC[C@H](C(=O)NC5CCN(C6CCOCC6)CC5)CC4)nn23)cc1OC` [Compound 340, 7-(3,4-dimethoxyphenyl)-N-((1R,4R)-4-((1-(tetrahydro-2H-pyran-4-yl)piperidin-4-yl)carbamoyl)cyclohexyl) pyrazolo[1,5-a] pyrimidine-2-carboxamide], the EC50 was at least 2000 nM. With `COc1ccc(-c2ccnc3cc(C(=O)Nc4ccc(C(=O)OCCN5CCCC5)cc4)nn23)cc1OC` [Compound 225, 2-(pyrrolidin-1-yl)ethyl 4-(7-(3,4-dimethoxyphenyl)pyrazolo [1,5-a]pyrimidine-2-carboxamido)benzoate], the EC50 was at least 2000 nM. As to `COc1ccc(-c2ccnc3cc(C(=O)NCc4ccc(N5CCOCC5)cc4)nn23)cc1OC` [Compound 246, 7-(3,4-dimethoxyphenyl)-N-(4-morpholinobenzyl)pyrazolo [1,5-a]pyrimidine-2-carboxamide], the EC50 lay within 200 to 2000 nM.

`CC[C@H]1CN(C(=O)c2cc3nccc(-c4ccc(OC)c(OC)c4)n3n2)CCN1` [Compound 371, (S)-(7-(3,4-dimethoxyphenyl)pyrazolo[1,5-a]pyrimidin-2-yl)(3-ethylpiperazin-1-yl)methanone]: the EC50 lay within 200 to 2000 nM. As for `CCOc1ccc(NC(=O)c2cc3nccc(-c4ccc(OC)cc4F)n3n2)cc1` [Compound 296, N-(4-ethoxyphenyl)-7-(2-fluoro-4-methoxyphenyl)pyrazolo [1,5-a]pyrimidine-2-carboxamide], the EC50 was at least 2000 nM. Consider `COc1ccc(-c2ccnc3cc(C(=O)Nc4ccc(C(=O)O)c(Cl)c4)nn23)cc1OC` [Compound 279, 2-chloro-4-(7-(3,4-dimethoxyphenyl)pyrazolo [1,5-a]pyrimidine-2-carboxamido)benzoic acid], for which the EC50 was at least 2000 nM. Turning to `COc1ccc(-c2ccnc3cc(C(=O)NCc4ccc(N5CCN(C)CC5)cc4)nn23)cc1OC` [Compound 245, 7-(3,4-dimethoxyphenyl)-N-(4-(4-methylpiperazin-1-yl)benzyl)pyrazolo[1,5-a]pyrimidine-2-carboxamide], the EC50 is at least 2000 nM. Regarding `COC(=O)C[C@H](NC(=O)c1ccc(NC(=O)c2cc3nccc(-c4ccc(OC)c(OC)c4)n3n2)cc1)C(=O)OC` [Compound 60, dimethyl (4-(7-(3,4-dimethoxyphenyl)pyrazolo [1,5-a]pyrimidine-2-carboxamido)benzoyl)-L-aspartate], the EC50 is below 200 nM. Take `COc1ccc(-c2ccnc3cc(C(=O)N4CCN(c5ccccc5)CC4)nn23)cc1OC` [Compound 152, (7-(3,4-dimethoxyphenyl)pyrazolo[1,5-a]pyrimidin-2-yl)(4-phenylpiperazin-1-yl)methanone]: the EC50 lay in the range of 200 to 2000 nM.

For `COc1ccc(-c2ccnc3cc(C(=O)Nc4ccc5c(ccn5C)c4)nn23)cc1OC` [Compound 309, 7-(3,4-dimethoxyphenyl)-N-(1-methyl-1H-indol-5-yl)pyrazolo [1,5-a]pyrimidine-2-carboxamide], the EC50 is below 200 nM. Turning to `COC(=O)c1cc2nccc(-c3ccc(OC)c(OC)c3)n2n1` [Compound 4], the EC50 was 200 to 2000 nM. In the case of `COC(=O)c1ccc(NC(=O)c2cc3nccc(-c4ccc5c(c4)OCCO5)n3n2)cc1` [Compound 70, methyl 4-(7-(2,3-dihydrobenzo[b][1,4]dioxin-6-yl)pyrazolo[1,5-a]pyrimidine-2-carboxamido)benzoate], the EC50 was at least 2000 nM. For `COc1ccc(-c2ccnc3cc(C(=O)N[C@H]4CC[C@@H](C(N)=O)CC4)nn23)cc1OC` [Compound 71, N-((1S,4S)-4-carbamoylcyclohexyl)-7-(3,4-dimethoxyphenyl)pyrazolo [1,5-a]pyrimidine-2-carboxamide], the EC50 was at least 2000 nM. Take `COc1ccc(-c2ccnc3cc(C(=O)N4CCN(C5CC5)CC4)nn23)cc1OC` [Compound 184, (4-cyclopropylpiperazin-1-yl)(7-(3,4-dimethoxyphenyl)pyrazolo [1,5-a]pyrimidin-2-yl)methanone]: the EC50 was in the range of 200 to 2000 nM.

For the origin of these results see patent US20240199623A1 (ILDONG PHARMACEUTICAL CO., LTD., priority 2020, published 2024).
